In patent US10738044B2, “Therapeutic compound and use in therapy” (PROXIMAGEN, LLC, priority 2015, dated 2020):

Assays:
[1] = system: male DBA/1J mice, collagen-induced arthritis; assay: Established mouse collagen-induced arthritis model; assay type: in vivo
Protocol: Example 1 was assessed in an established mouse collagen-induced arthritis model. Disease was induced in male DBA/1J mice by means of a subcutaneous injection of a collagen (bovine)/CFA emulsion at the base of the tail. Each paw was scored daily and the sum of all four scores was recorded as the Arthritic Index (AI). The maximum possible AI was 16 (0=no visible effects of arthritis, 1=edema and/or erythema of one digit, 2=edema and/or erythema of 2 joints, 3=edema and/or erythema of more than 2 joints, 4=severe arthritis of the entire paw and digits including limb deformation and ankylosis of the joint). As animals developed disease, they were sorted into treatment groups with AI in the range of 2-6 and an average group AI of 3.6 prior to initiation of the dosing regimen. Example 1 (10, 50 and 100 mg/kg) was administered orally twice daily from day 30 post-inoculation.
Histological evaluation of the rear right hind limbs was also carried out. The joints were scored for severity of arthritis (inflammation, pannus, cartilage damage and bone damage) by a board certified pathologist, who was blind to the assigned treatment.

[2] = system: DSS-treated mice, established colitis; assay: Chronic DSS-induced colitis mouse model; assay type: in vivo
Protocol: Example 1 was assessed in the treatment of established disease in the chronic Dextran Sulphate (DSS)-induced colitis model. DSS was administered in the drinking water as a 3% solution for five days. DSS-treated mice were orally administered vehicle, 6-Thioguanine (0.5 mg/kg) or Example 1 (10 mg/kg, 30 mg/kg or 100 mg/kg) b.i.d. from Days 6 to 19. A no treatment control group of 5 mice was also used. Body weights were measured daily for 19 days and animals were assessed visually for the presence of diarrhea and/or bloody stool. All animals underwent video endoscopy on Days 5 (baseline), 12 and 19 to assess the extent of colitis and whether any beneficial treatment effects could be observed. All animals were euthanized on Day 19 to obtain colon tissues for pathology examination.

[3] = system: female SJL mice, experimental allergic encephalomyelitis; assay: Mouse PLP139-151 relapsing-remitting EAE model; assay type: in vivo; conditions: 3, 10, 30 or 100 mg/kg orally twice daily, therapeutic; FIG. 7
Protocol: Example 1 was assessed in a PLP139-151 remitting and relapsing model of experimental allergic encephalomyelitis (EAE) in female SJL mice as an indicator of a potential treatment for multiple sclerosis in humans.
Adjuvant was prepared by homogenizing 100 mg Mycobacterium tuberculosis H37 RA in 50 mL Incomplete Freund's Adjuvant to prepare a 2 mg/mL suspension which was stored at 4-8° C. 50 ug pertussis toxin from Bordetella pertussis was reconstituted in 50 mL sterile PBS to prepare a 1 ug/mL solution which was kept in an ice bath. 10.35 mg PLP139-151 was dissolved in 10.35 mL sterile PBS to prepare a 1 mg/mL solution. 10 mL of PLP139-151 was emulsified with 10 mL adjuvant in ten batches in an ice bath to prepare a 0.5 mg/mL PLP139-151/1 mg/mL M. tuberculosis H37 RA emulsion which was kept in an ice bath. […] On day 0, 70 mice were injected subcutaneously in both flanks with 0.1 mL of the PLP139-151/CFA emulsion. Two hours later the mice were injected by intraperitoneal route with 0.2 mL pertussis toxin (200 ng/mouse). The mice were returned to routine maintenance with no adverse effects. On day 2, the mice were injected IP with 0.2 mL of pertussis toxin (200 ng/mouse). From day 7 the mice were weighed and scored for signs of disease as follows: 0=no obvious signs of motor dysfunction compared to non-immunized control; 1=limp or floppy tail; 2=limp tail and weakness in hind legs; 3=limp tail and complete paralysis of legs or limp tail with paralysis of one front and one hind leg; 4=limp tail, complete hind leg and partial front leg paralysis; 5=complete hind and complete front leg paralysis. On days 10-12, the mice were sorted into treatment groups based upon average score and twice daily oral administration of Example 1 (3, 10, 30 or 100 mg/kg), dexamethasone or vehicle (n=10 per group) was initiated. The disease score was monitored for 20 days.

[4] = system: female C57BL/6 mice, CCl4-induced liver fibrosis; assay: Carbon tetrachloride induced liver fibrosis model; assay type: in vivo, mouse; conditions: 100 mg/kg bid orally for 28 days; FIG. 8
Protocol: Example 1 was assessed in a carbon tetrachloride (CCl4)-induced Liver Fibrosis Model. 7 week old female C57BL/6 mice were divided into four groups (n=5/group for one Control group to act as non-disease comparator and n=10/group for three CCl4-treated groups based on their body weight the day before the start of the treatment. Thirty mice were intraperitoneally administered 5% CCl4 in mineral oil at a volume of 100 uL twice a week (days 0, 4, 11, 14, 18, 21 and 25). Five mice intraperitoneally administered mineral oil instead of the 5% CCl4, served as the non-diseased control group. Example 1 (100 mg/kg bid), Valsartan (20 mg/kg qd, positive control) and Vehicle were administered orally (dose volume=10 mL/kg) for 28 days (days −1 to 27). […] For quantitative analysis of fibrosis area, bright field images of Sirius red-stained section was blindly captured using a digital camera at 100-fold magnification, and the Sirius red-stained positive areas in 5 fields/4 um section/mouse were measured using ImageJ software (National Institute of Health, USA) and in accordance with the following expression: (collagen area/total area-vascular lumen area)×100. […] Results were expressed as mean±SD. Comparison of the Valsartan group and Vehicle group in fibrosis area was assessed with student's t-test to confirm whether Valsartan worked as a positive control.

[5] = system: serum TNFα in female Swiss Webster mice; assay: Murine model of LPS-induced cytokine release; assay type: in vivo, mouse; conditions: oral administration one hour prior to LPS challenge; serum one hour after LPS; FIG. 9
Protocol: Example 1 was assessed in an LPS-induced cytokine release assay. One hour after administration of Example 1, female Swiss Webster mice (n=5 per group) were injected intraperitoneally with 2 mL/kg LPS (1.5 mg/mL). One hour after LPS injection the mice were anesthetized and exsanguinated into pre-chilled serum separator microtainer tubes. The blood was processed to serum which was stored at −80° C. The frozen serum aliquots were thawed to room temperature, diluted 1:5 with sterile saline and assayed by ELISA for TNFα.

[6] = system: C57BL6 mice, laser-induced choroidal burns; assay: Mouse choroidal neovascularisation model; assay type: in vivo; conditions: topical 5 uL instillations tid days 0 to 12; day 12; FIG. 10
Protocol: Example 1 was assessed in a mouse choroidal neovascularisation model. Pigmented mice (C57BL6 strain, n=15 per group) each were induced with 3 choroidal burns in the right eyes using a 532 nm photocoagulator. Example 1 and vehicle were dosed topically using 5 uL instillations tid from days 0 to 12. On day 12, lesion size was determined by isolectine B4 immunostaining on flatmount choroids from the treated eyes and confocal microscopy for determining the size of the lesion.

[7] = system: C57BL/10ScSn-Dmdx/J male mice; assay: Murine model of Duchenne's muscular dystrophy (mdx mice); assay type: in vivo, mouse; conditions: 100 mg/kg po bid for 4 weeks; FIG. 11
Protocol: C57BL/10ScSn-Dmdx/J male mice were dosed from 27 days for 4 weeks with either vehicle (n=5), prednisolone (1 mg/kg ip qd, n=8) or Example 1 (100 mg/kg po bid, n=8). At 8 weeks of age, blood was collected by retro-orbital bleeding, and mice were humanely euthanized by CO2 asphyxiation. One triceps surae was collected fresh and processed for immune cell sorting, one tibialis anterior was preserved in RNALater for RNA extraction, one whole hind limb and the diaphragm were fixed in 2% paraformaldehyde overnight at 4° C. for paraffin embedding and histology stains. Serum was prepared immediately after collection and frozen at −20° C. At the end of the study, all serum samples were dosed for Creatine Kinase on a Beckman Coulter AU Clinical Chemistry analyzer following manufacturer instructions (a modification of the International Federation of Clinical Chemistry method).
For immune cell sorting, muscle samples were enzymatically and mechanically dissociated following manufacturer instructions (Skeletal Muscle Dissociation KitCatalog no. 130-098-305, Miltenyi Biotec). Cells were stained with the following antibodies:
Stained cells were analyzed on a BD LSR II cytometer and counts of different populations were expressed in percentage of the number of live cells counted. Total RNAs were extracted with a modification of the Trizol method, reverse transcribed, and mRNAs of TGFα, and the following inflammation markers were quantified by the SYBR green method with GAPDH as a normalizer: […]

[8] = 100 mg/kg orally twice daily, rear right hind limbs, FIG. 2

Structure (SMILES): CC(C)[C@H]1c2[nH]cnc2CCN1C(=O)OCc1ccc(OCCCN(C)C)cc1 [Example 1, {4-[3-(Dimethylamino)propoxy]phenyl}methyl (4S)-4-(propan-2-yl)-3H,4H,5H,6H,7H-imidazo[4,5-c]pyridine-5-carboxylate]
- reduction in disease severity (Arthritic Index) ([1]; 100 mg/kg orally twice daily, after two weeks of therapy, FIG. 1): 46%
- inhibition of bone resorption (joint histology) [1, 8]: 84%
- inhibition of cartilage damage (joint histology) [1, 8]: 60%
- inhibition of inflammation (joint histology) [1, 8]: 60%
- inhibition of pannus formation (joint histology) [1, 8]: 84%
- rate of disease development (Arthritic Index) ([1]; 10, 50 and 100 mg/kg orally twice daily from day 30 post-inoculation, FIG. 1): dose-dependent decrease in the rate of disease development
- magnitude of the effect relative to positive control 6-Thioguanine (0.5 mg/kg) ([2]; 100 mg/kg orally b.i.d.): comparable to the effect seen with the positive control
- overall body weight ([2]; 100 mg/kg orally b.i.d., FIG. 3): statistically significant effects
- endoscopy scores on day 12 ([2]; 100 mg/kg orally b.i.d., FIG. 4): statistically significant effects
- colon weight ([2]; 100 mg/kg orally b.i.d., FIG. 5): statistically significant effects
- diarrhea ([2]; 100 mg/kg orally b.i.d., FIG. 6): statistically significant effects
- overall effect in the DSS colitis model ([2]; 10, 30 or 100 mg/kg orally b.i.d., Days 6 to 19): dose-dependent improvement
- disease severity (EAE score) [3]: decrease in disease severity
- time to disease relapse [3]: increased time to disease relapse
- time to disease remission [3]: dose-dependent decrease in the time to disease remission
- deposition of collagen in the liver (Sirius red staining) [4]: significantly reduced
- serum TNFα levels relative to vehicle control [5]: statistically significant dose-dependent decrease
- lesion size versus vehicle [6]: significant reduction
- B cells [7]: significant reduction
- T cells [7]: significant reduction
- TGFβ [7]: significant reduction
- cytokines [7]: significant reduction
- macrophages [7]: significant reduction
- pro-inflammatory monocytes [7]: significant reduction
